ChEMBL document CHEMBL5365392, “Inhibitors of ABCG2-mediated multidrug resistance: Lead generation through computer-aided drug design” (Eur J Med Chem, 2023)
Where “and” joins values, the source holds several entries; their conditions need not be identical. Equal values may be shown once.

Experiments:
ABCG2 = target: T1, ABCG2 (Homo sapiens, UniProt Q9UNQ0); assay: (§1) Inhibition of ABCG2 (unknown origin)-mediated mitoxantrone efflux at 5 uM relative to control; details: probe mitoxantrone
T1 sequence (Q9UNQ0 whole entry): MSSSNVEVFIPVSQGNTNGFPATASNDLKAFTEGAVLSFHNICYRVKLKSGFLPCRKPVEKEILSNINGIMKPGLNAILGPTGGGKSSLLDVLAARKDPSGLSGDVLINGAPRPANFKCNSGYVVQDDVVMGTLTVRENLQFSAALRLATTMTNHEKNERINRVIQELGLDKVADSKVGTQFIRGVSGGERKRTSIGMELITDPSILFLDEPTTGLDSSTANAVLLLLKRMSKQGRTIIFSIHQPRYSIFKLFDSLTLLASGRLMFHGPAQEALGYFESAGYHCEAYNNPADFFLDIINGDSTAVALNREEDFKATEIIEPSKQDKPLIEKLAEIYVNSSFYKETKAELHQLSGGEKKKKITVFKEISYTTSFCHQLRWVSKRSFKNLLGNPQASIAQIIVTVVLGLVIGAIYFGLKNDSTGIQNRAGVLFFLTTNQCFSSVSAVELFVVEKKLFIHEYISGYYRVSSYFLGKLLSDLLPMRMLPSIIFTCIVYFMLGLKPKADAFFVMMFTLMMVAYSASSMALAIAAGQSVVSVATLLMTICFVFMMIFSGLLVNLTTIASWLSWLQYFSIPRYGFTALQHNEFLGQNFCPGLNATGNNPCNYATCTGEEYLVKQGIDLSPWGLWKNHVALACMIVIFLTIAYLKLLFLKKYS

[1] = target: T2, Broad substrate specificity ATP-binding cassette transporter ABCG2 (Homo sapiens, UniProt Q9UNQ0); assay: Inhibition of ABCG2 (unknown origin)-mediated mitoxantrone efflux
T2 sequence (Q9UNQ0 whole entry): T1 sequence (Q9UNQ0 whole entry)

[2] = target: T2, Broad substrate specificity ATP-binding cassette transporter ABCG2; assay: Inhibition of ABCG2 (unknown origin) expressed in HEK293 cells assessed as reduction in mitoxantrone accumulation incubated for 30 mins by flow cytometric method; type: cell-based
[3] = target: T2, Broad substrate specificity ATP-binding cassette transporter ABCG2; assay: as §1; details: 5 µM

Row | SMILES | inhibition at 5 µM (ABCG2) | EC50 [1] | EC50 [2] | inhibition (INH) [3]
1 | Cn1cc(CCNC(=O)c2cc(=O)c3c(OCc4ccc(Br)cc4)cccc3o2)c2ccccc21 | 85% |  |  | 
2 | O=c1ccc(=O)c2c1c1c(=O)c3ccccc3c1n2CCc1ccccc1 | 18% |  |  | 
3 | COc1cccc(CCn2c3c(c4c2-c2ccccc2C4=O)C(=O)CCC3)c1 | 78% | 310 nM |  | 
4 | COc1ccc2c(CCNC(=O)c3cc(=O)c4c(OCc5ccc(Br)cc5)cccc4o3)c[nH]c2c1 | 97% |  |  | 
5 | O=C1CCCc2c1c1c(n2CCCc2ccccc2)-c2ccccc2C1=O | 83% | 790 nM |  | 
6 | O=c1ccc(=O)c2c1c1c(=O)c3ccccc3c1n2CCCc1ccccc1 | 33% |  |  | 
7 | O=C1CC(c2ccccc2)Cc2c1c1c(n2CCc2ccccc2)-c2ccccc2C1=O (stereo not drawn) | 83% | 490 nM |  | 
8 | CC(C)n1c2c(c3c1-c1ccccc1C3=O)C(=O)C(Cc1ccccc1)(Cc1ccccc1)CC2 | 90% | 610 nM |  | 
9 | COc1ccc2c3c([nH]c2c1)[C@H](C=C(C)C)N1C(=O)[C@@H]2CCCN2C(=O)[C@@H]1C3 [FUMITREMORGIN] | 100% | 2000 nM |  | 
10 | COc1ccc2[nH]cc(CCN(C)C(=O)c3cc(=O)c4c(OCc5ccc(Br)cc5)cccc4o3)c2c1 | 101% |  |  | 
11 | O=C(NCc1cn(CCc2c[nH]c3ccccc23)nn1)c1cc(=O)c2c(OCc3ccc(Br)cc3)cccc2o1 | 87% |  |  | 
12 | CC1CC(=O)c2c3c(n(CCc4ccccc4)c2C1)-c1ccccc1C3=O (stereo not drawn) | 100% | 230 nM |  | 
13 | O=C1CCCc2c1c1c(n2CCc2ccccc2)-c2ccccc2C1=O | 100% | 430 nM |  | 
14 | CN(CCc1c[nH]c2ccccc12)C(=O)c1cc(=O)c2c(OCc3ccc(Br)cc3)cccc2o1 | 105% |  |  | 
15 | CN(CCc1cn(C)c2ccccc12)C(=O)c1cc(=O)c2c(OCc3ccc(Br)cc3)cccc2o1 | 88% |  |  | 
16 | C=CCOc1ccc(CNCCc2c[nH]c3ccccc23)cc1OCC |  |  | 130 nM | 
17 | O=c1cc(-c2ccccc2)c(=O)c2c1c1c(=O)c3ccccc3c1n2CCc1ccccc1 | 128% | 430 nM |  | 
18 | COc1ccc2[nH]cc(CCNC(=O)c3cc(=O)c4c(OCc5ccc(Br)cc5)cccc4o3)c2c1 | 98% |  |  | 
19 | Cc1cc(=O)c2c3c(=O)c4ccccc4c3n(CCc3ccccc3)c2c1=O | 99% | 840 nM |  | 
20 | O=C1CC(c2ccccc2)Cc2c1c1c(n2Cc2ccccc2)-c2ccccc2C1=O (stereo not drawn) | 68% | 960 nM |  | 
21 | COc1ccc2[nH]cc(CCN(C)Cc3cc(=O)c4c(OCc5ccc(Br)cc5)cccc4o3)c2c1 |  | 1800 nM |  | 46% and 75%
22 | O=c1cc(-c2ccccc2)c(=O)c2c1c1c(=O)c3ccccc3c1n2Cc1ccccc1 | 41% |  |  | 
